Experimental data from patent US3962282A, “Juvenile hormone mimics” (priority 1974, dated 1976).
Values joined by “and” are separate entries in the source; they are usually repeats but may differ in a detail not shown here. Equal values may be shown once.

Tests used:
[1] = test system: cockroach nymphs (Blattella germanica); test: German cockroach nymphs in treated glass jars; type: in vivo; conditions: for reproduction: four months
Description: Test jars were prepared by adding 2 ml. of an acetone solution containing 10 mg., 20 mg., or 100 mg. of 2,6-dimethyl-9-(3,4-methylenedioxyphenyl)-2,6-nonadiene to 1 gallon glass jars and allowing the acetone to evaporate. The jars were equipped with watering bottles, food, and paper towels. There were two jars for each rate of test compound and two jars for nontreated controls. To each jar were added 20 40-day-old cockroach nymphs (Blattella germanica). […] Thus, the nonadiene at 100 mg. had prevented reproduction for 4 months.

[2] = test system: Housefly (Musca domestica); test: housefly rearing diet test, percent adult emergence; type: in vivo
Description: Test compounds were mixed with the rearing diet of houseflys at various levels. The prepared diet was then placed in an 8 oz. drinking cup. Three cups were prepared for each treatment level and three control cups. Housefly eggs (Musca domestica) were placed in each cup and they were maintained at 28°C. for 1 week. Fifty pupae were then removed from each cup and placed in a petri dish. After the control pupae had emerged into adults, the percent emergence in each dish was recorded. The test compounds used were 7,8-epoxy-4-ethyl-8-methyl-1-(3,4-methylenedioxyphenyl)-3-decene, 4,8-dimetyl-1-(3,4-methylenedioxyphenyl)-2,6-nonadiene and 2,6-dichloro-2,6-dimethyl-9-(3,4-methylenedioxyphenyl)nonane.

[3] = test system: Mexican bean beetle larvae; test: soil drench of bean plants with Mexican bean beetle larvae; type: in vivo; conditions: scale 0-3
Description: Bean plants of the Bountiful variety were placed in soil and allowed to grow with 10 Mexican bean beetle larvae on each cluster. To the soil around each plant was added 200 ml. of a solution containing 2,6-dimethyl-9-(3,4-methylenedioxyphenyl)-2,6-nonadiene. The soil was then covered with aluminum foil to prevent the larvae from coming in contact with the compound. Three different concentrations of compound were applied. These were prepared from a 48 percent emulsifiable concentrate by diluting 10 ml., 4 ml., and 2 ml. of the concentrate to a volume of 200 ml. with water. A control using 200 ml. of just water and another using no drench were also run. The results are tabulated below using the same rating system as described earlier for the primary screening test agains Mexican bean beetle.

[4] = test system: Aedes aegypti mosquito larvae; test: mosquito larvae in aqueous solutions, adult emergence; type: in vivo; conditions: for number of adults, Jar 1 Dead / number of adults, Jar 1 Living / number of adults, Jar 2 Dead / number of adults, Jar 2 Living: 13 days
Description: Two compounds, 7,8-epoxy-4-ethyl-8-methyl-1-(3,4-methylenedioxyphenyl)-3-decene and 2,6-diemthyl-9-(3,4-methylenedioxyphenyl)-2,6-nonadiene, were tested against Aedes aegypti mosquito larvae in aqueous solutions at concentrations of 10, 5, 2.5. 1.25 and 0.625 ppm. each. Ninety milliliters of each solution were placed in a pint jar and 30 five-day-old mosquito larvae were added to each jar. Two tests were run at each concentration and control tests employing only solvent with no compound were also run. Food was added to each jar, the jars were covered with cloths, and maintained at 29°C. until adults emerged in the control jars. The number of adults in the test jars was determined.

[5] = test system: Mexican bean beetle larvae; test: spray of caged flats of bean plants with Mexican bean beetle larvae; type: in vivo
Description: Six-foot by 12-foot caged flats were planted with Bountiful variety bean plants in two 12-foot rows. Into each cage were introduced 100 Mexican bean beetle larvae. Each cage was then sprayed with 500 ml. of a solution prepared by diluting a 48 percent emulsifiable concentrate of 2,6-dimethyl-9-(3,4-methylenedioxyphenyl)-2,6-nonadiene to the desired concentration. Two flats were treated at each concentration and two were used as controls.

Southern corn rootworm = Southern corn rootworm larvae in treated petri dishes, adult emergence; type: in vivo, Diabrotica undecimpunctata; conditions: 21 days
Description: Petri dishes containing 150 g. of sand were autoclaved for one hour. Corn seed which had been soaked overnight was rinsed first with a solution of 10 percent alcohol, 20 percent chlorox, and 70 percent water for 15 minutes and then with clear water. Three to four seeds were placed in each dish. The dishes were then moistened with 15 ml. of a 100 ppm. solution of a fungicide. After 24 hours, ten Southern corn rootworm eggs (Diabrotica undecimpunctata) were placed in each dish. The dishes were maintained in an incubator in the dark for 14 days. New petri dishes were prepared as described except that the eggs were not added and 2,6-diemthyl-9-(3,4-methylenedioxyphenyl)-2,6-nonadiene was added at a rate of 100 ppm. or 10 ppm. Ten dishes at each treatment rate and ten controls were used. Three larvae from the incubated dishes were placed in each of the treated dishes and each control dish. […] There were a total of 15 adults in the ten dishes treated at 10 ppm. and a total of 19 adults in the ten control dishes.

[6] = test system: Melon aphids (Aphis gossypi); test: melon aphids on dipped squash plants; type: in vivo; conditions: 200 ppm, six days
Description: Young squash plants were dipped for 30 seconds in aqueous solutions containing 200, 100, and 50 ppm. of 2.6-dimethyl-9-(3,4-methylenedioxyphenyl)-2,6-nonadiene. Three plants were treated at each concentration and three plants were used as controls. After the plants had dried, ten adult aphids (Aphis gossypi) were placed on each plant and allowed to feed. The plants were maintained under laboratory conditions. Twenty-four hours after they were placed on the plants, all adults were removed, leaving young nymphs. Six days after treatment, the total number of aphids on each plant was determined.

## CC(C)=CCCC(C)=CCCc1ccc2c(c1)OCO2 [2,6-dimethyl-9-(3,4-methylenedioxyphenyl)-2,6-nonadiene]
[1]; 10 mg, about 2 1/2 months
  state of adults and nymphs: normal adults and newly hatched nymphs
[1]; 20 mg, about 2 1/2 months
  state of adults and nymphs: normal adults and newly hatched nymphs
[1]; 100 mg
  duration of prevented reproduction: 4 months
  reproduction: no reproduction
[1]; 100 mg, about 2 1/2 months
  newly hatched nymphs: did not contain newly hatched nymphs
  wings of adults: all adults in the jars had deformed wings
[1]; lower rate jars (10 and 20 mg)
  reproduction: large numbers of newly hatched nymphs
[2]; 100 ppm in diet
  percent adult emergence, Cup 1: 90%
  percent adult emergence, Cup 2: 30%
  percent adult emergence, Cup 3: 10%
[2]; 500 ppm
  control: 100%
[2]; 500 ppm in diet
  percent adult emergence, Cup 1: 0%
  percent adult emergence, Cup 2: 0%
  percent adult emergence, Cup 3: 0%
[3]; 2 ml. concentrate/200 ml.
  number in rating 0: 8
  number in rating 3: 2
[3]; 4 ml. concentrate/200 ml.
  number in rating 0: 2
  number in rating 3: 8
[3]; 10 ml. concentrate/200 ml.
  number in rating 0: 1
  number in rating 3: 9
[4]; 0.625 ppm
  number of adults, Jar 1 Dead: 21
  number of adults, Jar 1 Living: 1
  number of adults, Jar 2 Dead: 21
  number of adults, Jar 2 Living: 0
[4]; 1.25 ppm
  number of adults, Jar 1 Dead: 1
  number of adults, Jar 1 Living: 3
  number of adults, Jar 2 Dead: 10
  number of adults, Jar 2 Living: 1
[4]; 2.5 ppm
  number of adults, Jar 1 Dead: 0
  number of adults, Jar 1 Living: 0
  number of adults, Jar 2 Dead: 1
  number of adults, Jar 2 Living: 0
[4]; 5 ppm
  number of adults, Jar 1 Dead: 0
  number of adults, Jar 1 Living: 0
  number of adults, Jar 2 Dead: 0
  number of adults, Jar 2 Living: 0
[4]; 10 ppm
  number of adults, Jar 1 Dead: 0
  number of adults, Jar 1 Living: 0
  number of adults, Jar 2 Dead: 0
  number of adults, Jar 2 Living: 0
[4]; at concentrations as low as 2.5 ppm
  control: 100%
[4]; nonadiene at 10, 5, and 2.5 ppm, decene at any concentration
  live adults in the jars: never any live adults
[5]; 0.1 lbs./acre
  % Control: 13%
[5]; 0.2 lbs./acre
  % Control: 71.5%
[5]; 0.4 lbs./acre
  % Control: 75.5%
[5]; 0.8 lbs./acre
  % Control: 98.5%
Southern corn rootworm; 10 ppm, 19 adults in ten control dishes
  total adults in the ten dishes: 15 adults
Southern corn rootworm; 100 ppm
  adults emerged: no adults had emerged
[6]
  number of aphids per plant, Total: 15 and 13 and 22
